Assay results published in PubChem BioAssay (NCI).
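Grown in 96-well plates, cells were treated for 48 hours with each compound at five concentrations. Insufficient inhibition: endpoint recorded as highest concentration tested. The concentration for full growth arrest is given as TGI.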

Legend:
Test in all cases: inhibition of tumour cell growth, NCI panel, 48 h
786-0 renal = tested on: 786-0 renal
A498 renal = tested on: A498 renal
A549 NSCLC = tested on: A549 NSCLC
ACHN renal = tested on: ACHN renal
BT-549 breast = tested on: BT-549 breast
CAKI-1 renal = tested on: CAKI-1 renal
CCRF-CEM leukemia = tested on: CCRF-CEM leukemia
COLO 205 colon = tested on: COLO 205 colon
DU-145 prostate = tested on: DU-145 prostate
EKVX NSCLC = tested on: EKVX NSCLC
HCT-116 colon = tested on: HCT-116 colon
HCT-15 colon = tested on: HCT-15 colon
HL-60(TB) leukemia = tested on: HL-60(TB) leukemia
HOP-62 NSCLC = tested on: HOP-62 NSCLC
HOP-92 NSCLC = tested on: HOP-92 NSCLC
HS 578T breast = tested on: HS 578T breast
HT29 colon = tested on: HT29 colon
IGROV1 ovarian = tested on: IGROV1 ovarian
K-562 leukemia = tested on: K-562 leukemia
KM12 colon = tested on: KM12 colon
LOX IMVI melanoma = tested on: LOX IMVI melanoma
M14 melanoma = tested on: M14 melanoma
MALME-3M melanoma = tested on: MALME-3M melanoma
MCF7 breast = tested on: MCF7 breast
MDA-MB-231 breast = tested on: MDA-MB-231 breast
MDA-MB-435 = tested on: MDA-MB-435
MDA-N = tested on: MDA-N
MOLT-4 leukemia = tested on: MOLT-4 leukemia
NCI-H226 lung = tested on: NCI-H226 lung
NCI-H23 lung = tested on: NCI-H23 lung
NCI-H522 lung = tested on: NCI-H522 lung
NCI/ADR-RES ovarian = tested on: NCI/ADR-RES ovarian
OVCAR-3 ovarian = tested on: OVCAR-3 ovarian
OVCAR-4 ovarian = tested on: OVCAR-4 ovarian
OVCAR-5 ovarian = tested on: OVCAR-5 ovarian
OVCAR-8 ovarian = tested on: OVCAR-8 ovarian
PC-3 prostate = tested on: PC-3 prostate
RPMI-8226 leukemia = tested on: RPMI-8226 leukemia
SF-268 CNS = tested on: SF-268 CNS
SF-295 CNS = tested on: SF-295 CNS
SF-539 CNS = tested on: SF-539 CNS
SK-MEL-2 melanoma = tested on: SK-MEL-2 melanoma
SK-MEL-28 melanoma = tested on: SK-MEL-28 melanoma
SK-MEL-5 melanoma = tested on: SK-MEL-5 melanoma
SK-OV-3 ovarian = tested on: SK-OV-3 ovarian
SN12C renal = tested on: SN12C renal
SNB-19 CNS = tested on: SNB-19 CNS
SR leukemia = tested on: SR leukemia
SW-620 colon = tested on: SW-620 colon
T-47D breast = tested on: T-47D breast
TK-10 renal = tested on: TK-10 renal
U251 CNS = tested on: U251 CNS
UACC-257 melanoma = tested on: UACC-257 melanoma
UACC-62 melanoma = tested on: UACC-62 melanoma
UO-31 renal = tested on: UO-31 renal
NCI-H460 lung = tested on: NCI-H460 lung
RXF 393 renal = tested on: RXF 393 renal
SNB-75 CNS = tested on: SNB-75 CNS

## COc1ccc2c3c1O[C@H]1C(O)CCC4(O)[C@@H](C2)NCC[C@]314 (stereo not given in full)
786-0 renal
  TGI: > 100 µM
A498 renal
  TGI: > 100 µM
A549 NSCLC
  TGI: > 100 µM
ACHN renal
  TGI: > 100 µM
BT-549 breast
  TGI: > 100 µM
CAKI-1 renal
  TGI: > 100 µM
CCRF-CEM leukemia
  TGI: > 100 µM
COLO 205 colon
  TGI: > 100 µM
DU-145 prostate
  TGI: > 100 µM
EKVX NSCLC
  TGI: > 100 µM
HCT-116 colon
  TGI: > 100 µM
HCT-15 colon
  TGI: > 100 µM
HL-60(TB) leukemia
  TGI: > 100 µM
HOP-62 NSCLC
  TGI: > 100 µM
HOP-92 NSCLC
  TGI: > 100 µM
HS 578T breast
  TGI: > 100 µM
HT29 colon
  TGI: > 100 µM
IGROV1 ovarian
  TGI: > 100 µM
K-562 leukemia
  TGI: > 100 µM
KM12 colon
  TGI: > 100 µM
LOX IMVI melanoma
  TGI: > 100 µM
M14 melanoma
  TGI: > 100 µM
MALME-3M melanoma
  TGI: > 100 µM
MCF7 breast
  TGI: > 100 µM
MDA-MB-231 breast
  TGI: > 100 µM
MDA-MB-435
  TGI: > 100 µM
MDA-N
  TGI: > 100 µM
MOLT-4 leukemia
  TGI: > 100 µM
NCI-H226 lung
  TGI: > 100 µM
NCI-H23 lung
  TGI: > 100 µM
NCI-H522 lung
  TGI: > 100 µM
NCI/ADR-RES ovarian
  TGI: > 100 µM
OVCAR-3 ovarian
  TGI: > 100 µM
OVCAR-4 ovarian
  TGI: > 100 µM
OVCAR-5 ovarian
  TGI: > 100 µM
OVCAR-8 ovarian
  TGI: > 100 µM
PC-3 prostate
  TGI: > 100 µM
RPMI-8226 leukemia
  TGI: > 100 µM
SF-268 CNS
  TGI: > 100 µM
SF-295 CNS
  TGI: > 100 µM
SF-539 CNS
  TGI: > 100 µM
SK-MEL-2 melanoma
  TGI: > 100 µM
SK-MEL-28 melanoma
  TGI: > 100 µM
SK-MEL-5 melanoma
  TGI: > 100 µM
SK-OV-3 ovarian
  TGI: > 100 µM
SN12C renal
  TGI: > 100 µM
SNB-19 CNS
  TGI: > 100 µM
SR leukemia
  TGI: > 100 µM
SW-620 colon
  TGI: > 100 µM
T-47D breast
  TGI: > 100 µM
TK-10 renal
  TGI: > 100 µM
U251 CNS
  TGI: > 100 µM
UACC-257 melanoma
  TGI: > 100 µM
UACC-62 melanoma
  TGI: > 100 µM
UO-31 renal
  TGI: > 100 µM

## C/C(=N\Nc1cc(CN2CCCC2)c(-c2ccc(Cl)cc2)nn1)C(=O)O
786-0 renal
  TGI: > 100 µM
A498 renal
  TGI: > 100 µM
A549 NSCLC
  TGI: > 100 µM
ACHN renal
  TGI: > 100 µM
BT-549 breast
  TGI: > 100 µM
CAKI-1 renal
  TGI: > 100 µM
CCRF-CEM leukemia
  TGI: > 100 µM
COLO 205 colon
  TGI: > 100 µM
DU-145 prostate
  TGI: > 100 µM
EKVX NSCLC
  TGI: > 100 µM
HCT-116 colon
  TGI: > 100 µM
HCT-15 colon
  TGI: > 100 µM
HL-60(TB) leukemia
  TGI: > 100 µM
HOP-62 NSCLC
  TGI: > 100 µM
HOP-92 NSCLC
  TGI: > 100 µM
HS 578T breast
  TGI: > 100 µM
HT29 colon
  TGI: > 100 µM
IGROV1 ovarian
  TGI: > 100 µM
K-562 leukemia
  TGI: > 100 µM
KM12 colon
  TGI: > 100 µM
LOX IMVI melanoma
  TGI: > 100 µM
M14 melanoma
  TGI: > 100 µM
MALME-3M melanoma
  TGI: > 100 µM
MCF7 breast
  TGI: > 100 µM
MDA-MB-231 breast
  TGI: > 100 µM
MDA-MB-435
  TGI: > 100 µM
MDA-N
  TGI: > 100 µM
MOLT-4 leukemia
  TGI: > 100 µM
NCI-H226 lung
  TGI: > 100 µM
NCI-H23 lung
  TGI: > 100 µM
NCI-H460 lung
  TGI: > 100 µM
NCI-H522 lung
  TGI: > 100 µM
NCI/ADR-RES ovarian
  TGI: > 100 µM
OVCAR-3 ovarian
  TGI: > 100 µM
OVCAR-4 ovarian
  TGI: > 100 µM
OVCAR-5 ovarian
  TGI: > 100 µM
OVCAR-8 ovarian
  TGI: > 100 µM
PC-3 prostate
  TGI: > 100 µM
RPMI-8226 leukemia
  TGI: > 100 µM
RXF 393 renal
  TGI: > 100 µM
SF-268 CNS
  TGI: > 100 µM
SF-295 CNS
  TGI: > 100 µM
SF-539 CNS
  TGI: > 100 µM
SK-MEL-2 melanoma
  TGI: > 100 µM
SK-MEL-28 melanoma
  TGI: > 100 µM
SK-MEL-5 melanoma
  TGI: > 100 µM
SK-OV-3 ovarian
  TGI: > 100 µM
SN12C renal
  TGI: > 100 µM
SNB-19 CNS
  TGI: > 100 µM
SNB-75 CNS
  TGI: > 100 µM
SR leukemia
  TGI: > 100 µM
SW-620 colon
  TGI: > 100 µM
T-47D breast
  TGI: > 100 µM
TK-10 renal
  TGI: > 100 µM
U251 CNS
  TGI: > 100 µM
UACC-257 melanoma
  TGI: > 100 µM
UACC-62 melanoma
  TGI: > 100 µM
UO-31 renal
  TGI: > 100 µM

## O=C1/C(=C\c2ccc([N+](=O)[O-])o2)SC2N=C(COc3ccc(Cl)cc3)NN12 (stereo not given)
786-0 renal
  TGI: 13.7 µM
A498 renal
  TGI: 44.3 µM
A549 NSCLC
  TGI: 38.4 µM
ACHN renal
  TGI: 3.67 µM
BT-549 breast
  TGI: 21.8 µM
CAKI-1 renal
  TGI: 32.9 µM
CCRF-CEM leukemia
  TGI: 5.97 µM
COLO 205 colon
  TGI: 13.3 µM
DU-145 prostate
  TGI: 27.3 µM
EKVX NSCLC
  TGI: 22.3 µM
HCT-116 colon
  TGI: 14.5 µM
HCT-15 colon
  TGI: 4.77 µM
HL-60(TB) leukemia
  TGI: 6.03 µM
HOP-62 NSCLC
  TGI: 41.8 µM
HOP-92 NSCLC
  TGI: 4.49 µM
HS 578T breast
  TGI: > 100 µM
HT29 colon
  TGI: 44.4 µM
IGROV1 ovarian
  TGI: 9.82 µM
K-562 leukemia
  TGI: 27 µM
KM12 colon
  TGI: 28.4 µM
LOX IMVI melanoma
  TGI: 10.5 µM
M14 melanoma
  TGI: 13.2 µM
MALME-3M melanoma
  TGI: 6.07 µM
MCF7 breast
  TGI: 4.8 µM
MDA-MB-231 breast
  TGI: 15.9 µM
MDA-MB-435
  TGI: 16.3 µM
MDA-N
  TGI: 14.3 µM
MOLT-4 leukemia
  TGI: > 100 µM
NCI-H226 lung
  TGI: 41.3 µM
NCI-H23 lung
  TGI: 35 µM
NCI-H460 lung
  TGI: 39.5 µM
NCI-H522 lung
  TGI: 4.81 µM
NCI/ADR-RES ovarian
  TGI: 42.9 µM
OVCAR-3 ovarian
  TGI: 18.9 µM
OVCAR-4 ovarian
  TGI: 3.43 µM
OVCAR-5 ovarian
  TGI: 47.5 µM
OVCAR-8 ovarian
  TGI: 10.2 µM
PC-3 prostate
  TGI: 24.4 µM
RPMI-8226 leukemia
  TGI: > 100 µM
RXF 393 renal
  TGI: 31.6 µM
SF-268 CNS
  TGI: 13.6 µM
SF-295 CNS
  TGI: 34.1 µM
SF-539 CNS
  TGI: 15.5 µM
SK-MEL-2 melanoma
  TGI: 37.2 µM
SK-MEL-28 melanoma
  TGI: 17.9 µM
SK-MEL-5 melanoma
  TGI: 27.1 µM
SK-OV-3 ovarian
  TGI: 38.8 µM
SN12C renal
  TGI: 29.6 µM
SNB-19 CNS
  TGI: 31.1 µM
SNB-75 CNS
  TGI: 29.7 µM
SR leukemia
  TGI: > 100 µM
SW-620 colon
  TGI: 9.92 µM
T-47D breast
  TGI: 7.54 µM
TK-10 renal
  TGI: 31.4 µM
U251 CNS
  TGI: 34.7 µM
UACC-257 melanoma
  TGI: 16.9 µM
UO-31 renal
  TGI: 23 µM
